Patent publication US20060257875A1, “Affinity screening using "one-bead-one-compound" libraries” (Carlsberg A/S, priority 2003, published 2006)

System: basal myocyte protein
Test: Solid phase screening of Library 6 with unlabeled myocyte proteins; silver staining, on-bead tryptic digest
Assay type: binding, neonatal Wistar rats
Settings: Normal Myocytes
Description: Myocytes were prepared from 1 to 5 day old neonatal Wistar rats (University of Copenhagen) according to literature procedure described in Busk et al., 2002, Cardiovasc. Res., 56: 64-75 and plated into eight P10 culture plates at 6 million cells/plate.
Isolated proteins that bound to specific ligands were identified using peptide mass fingerprinting. Mass spectra were recorded on a Bruker Reflex m MALDI time-of-flight mass spectrometer (Bruker-Daltonics, Bremen, Germany) operated in the positive reflectron mode using delayed extraction. Measurements were performed using the following parameters: Power 83-84 V; lens 7.300. The sum of 200-300 shots was used for each spectrum.
The spectra were calibrated using bradykinin peptide. In some cases, internal mass calibration was performed using a porcine trypsin autolysis product Peptide masses were searched against peptide mass maps in the National Center for Biotechnology Information (NCBI) database using the following search engines found on the world wide web (www.) for each of: • MS-FIT (prospector.ucsf.edu/ucsfhtml/msfit.htm), • Profound (129.85.19.192/profound_biniWebProFound.exe), and • MASCOT (matrixscience.com).
A search was performed using the NCBI bacterial (E. coli) database and the mammalian databases for the isolated proteins from the E. coli and myocyte samples, respectively, and the Swiss Prot mammalian databases and the Swiss Prot viral databases were searched to identify the porcine macrophage proteins and proteins, respectively. A molecular mass range was estimated from 0-250 K Da, allowing a mass accuracy that varied from 0.1 Da (some cases 0.3 Da) for each peptide mass. A large pI range from 0-14 or 0-12 was considered for each search. If no proteins matched, the mass window was extended. Partial enzyme cleavages allowing for two missed cleavage sites and modification of cysteine by alkylation were considered in the search approaches. A protein was considered identified if the matched peptides covered at least 30% of the complete sequence. A match of less than 30% was considered in some cases, if prominent peaks were obtained. Usually, four or more peptides were used for identification. In some instances, hypothetical proteins or gene products, such as biochemical material, either RNA or protein, calculated from the expected expression of a gene and to which a function may be assigned based on sequence homology, were identified.
Protein was extracted from myocytes prepared as described above for Example 9, using a new procedure (to preserve the activity of metalloproteases) modified from existing protocols, primarily: Amott, et al., 1998, Anal. Biochem. 258: 1-18. The media was removed from plates and cells were washed with ice cold phosphate buffer (5 ml, 10 mM, pH 7.5, supplemented with 0.15 M NaCl,) to remove traces of media components. The adhered cells were treated for 10 minutes with ice cold phosphate buffer (2 mL, 10 mM, pH 7.5, augmented with 0.15 M NaCl, […] E-64, 10 μg/mL Leupeptin, and 10 μg/mL Pepstatin A). The cells were scraped off the plates and then lysed (on ice) in a sonicator (2×) using 10 seconds off/110 seconds on cycles.
The resulting suspension was augmented with CHAPS (1% w/v), KCl (50 mM), NaCl (0.5 M), ZnCl2 (0.1 mM), DTT (5 mM), and urea (2 M). After 10-15 minutes on ice, the solution was centrifuged for 10 minutes at 15,000 rpm at 4° C. The supernatant was removed and protein content quantified using the NanoOrange Protein test (Molecular Probes, Eugene, Oreg.): Total protein recovered: 195 μg for PE-induced cells and 200 μg for basal cells.
The protein solutions were dialyzed extensively against 20 mM MES (2-[N-Morpholino]ethanesulfonic acid) buffer pH 6.0, supplemented with 0.15 M NaCl and 1 mM ZnCl2 to remove excess detergent and urea. […]

SMILES	Identified Protein(s)
CC(C)C(NC(CCCCN)C(=O)N1CCN(C(=O)OC(C)(C)C)CC1)C(C)C (stereo not shown)	Angiotensin converting enzyme (P22967).
CCC(CCO)NC(CCCCN)C(=O)N1CCN(C(=O)OC(C)(C)C)CC1 (stereo not shown)	Angiotensin converting enzyme (P22967).
CCOC(=O)C1CCCCC1NC(CCCCN)C(=O)NC(CCCCNC(=O)OC(C)(C)C)C(=O)O (stereo not shown)	Angiotensin converting enzyme (P22967); U2 nuclear ribonuceoprotein zuxiliary factor (gi 2842676).
CCCCCCNC(=O)C(CCCCN)NC1CCCCC1C(=O)OCC (stereo not shown)	Inward rectifier potassium channel 13 (Q9QZ65, IRKD_CAVPO); Sulfonylurea receptor 2 (Q63563); small conductance potassium channel (P58391).
CCCCCCNC(=O)C(CCCCN)NC(CC)CCO (stereo not shown)	Myosine heavy chain, nonmuscular type (AQ62812); Hypothetical protein E330017A01 (XP-148690.1).
CCOC(=O)C(CCc1ccccc1)NC(CCCCN)C(=O)N[C@@H](C)C(=O)O (stereo partly shown)	Testase 1 or disintegrin 5 containing metalloproteinase domain 24 (gi 31981793); ADP-ribosylation factor like protein 8 (Q96KC2).
CCOC(=O)C1CCCCC1NC(CCCCN)C(=O)N[C@@H](C)C(=O)O (stereo partly shown)	Golgi coiled coil protein GCC185 (Q8CHG3).
CC(C)C(NC(CCCCN)C(=O)C[C@@H](C)C(=O)O)C(C)C (stereo partly shown)	Mysoin heavy chain nonmuscular type (AQ62812).
CCOC(=O)C(CCc1ccccc1)NC(CCCCN)C(=O)N1CCC[C@H]1C(=O)O (stereo partly shown) [drawing 164]	Angiotensin converting enzyme (P22967); U2 nuclear ribonucleoprotein auxxiliary factor (gi 2842676).
CCCCCCNC(=O)C(CCCCN)NC(C(C)C)C(C)C (stereo not shown) [drawing 170]	Heat Shock protein 70 kDa protein 12A (Q8KOU4); Ser- ine/threonine protein kinase (O88866); Ras GTPase acti- vating protein 2 (GAP1m) (58069).
